# Source: patent US10201558B2, “Compositions of selenoorganic compounds and methods of use thereof” (Alltech, Inc., priority 2014, dated 2019)
# How the values were obtained:
# Type in all cases: cell-based, human
# IMR-32 cells = test: Cell viability assay (CellTiter96 AQueous One, OD490); settings: 150 ppb, 72 hours
# Method: Cell viability in cultured IMR-32 cells was determined using Promega's CellTiter96® AQueous One Solution Cell Proliferation Assay kits, according to the manufacturer's protocol and instructions. In brief, IMR-32 cells were seeded on 96-well clear plates (VWR) at a density of 2×10^4 cells/well, and treated with control or compounds of the present invention for 24 hours, 28 hours, and/or 72 hours.
# The cultured cells were then incubated with AQueous One solution (100 ul/per well) at 37° C. for 1 hour. The absorbance at OD490 nm in each sample was determined by a Bio-Tek microplate reader. Cell viability in cultured cells were determined by the subtraction of OD490 nm in cultured cells with the OD490 nm in plain culture media without seeding of cells (control). Eight samples per each treatment were examined for the above analysis.
# Cell viability assays were performed on cells after treatment with various compounds (150 ppb selenium compounds and equal dilution of their sulfur analog) for 24 hours, and 72 hours.
# PSEN1 = test: Western blot of PSEN1 protein in IMR-32 cells; settings: 150 ppb, 24 hours
# Method: IMR-32 cells were seeded on 6-well plates and then treated with control and various compounds for 6 hours and 24 hours, as described above. After treatments, cells were rinsed with ice-cold PBS and lysed in ice-cold RIPA buffer containing complete proteinase and phosphatase inhibitors (Thermo-Fisher Scientific, Waltham, Mass.) on ice for 30 min Cell lysates were collected using a cell scraper and transfer pipette and then centrifuged at 12000×g for 30 min at 4° C. to remove the DNA pellet and obtain the protein extract. Protein levels in the supernatant of these cell lysates were determined using the Pierce Micro-BCA protein assay kit (Thermo Scientific-Piece Biotechnology, Rockford, Ill.) according to the manufacturer's protocol […]
# Positive signals on the membrane blots were detected using Amersham's enhanced chemiluminescence (ECL) Western Blotting Prime Detection reagents (GE healthcare Lifescience, Pittsburgh, Pa.). Images of these luminescence signals on the membrane blots were captured using the LI-COR Odyssey Fc Image system (Lincoln, Nebr.). […] Protein band densities in the Western blots were determined using the Li—COR Image studio software or NIH ImageJ software, and then normalized by ACTB protein level in each sample. […]
# IGF1R = test: QRT-PCR of IGF1R mRNA in IMR-32 cells; settings: 75 ppb and 150 ppb, 24 hours
# Method: Human IMR-32 cells were seeded on gelatinized 6-well (6.5×10^5 cells/well) or 24-well (1.3×10^5 cells/well) plates. Cells were treated with control (0 ppb) or various compounds for 6 hours or 24 hours. Total RNA from these cells was isolated using Trizol (Invitrogen) according to the manufacturer's protocol, and then incubated with DNase I to remove any potential contaminated genomic DNA. Then RNA samples were subjected to real-time PCR analysis using the Applied-Bioscience's RT kit and predesigned Taqman probes (Invitrogen), as described previously (Lan et al EMBO J 2003). The mRNA levels of UCP1, UCP2, UCP3, SLC25A27 (UCP4), SLC25A14 (UCP5), PSEN1, Nicastrin, GSK3B, MAPK11-14, PPARG, APOE, RCAN1, RCAN1.1, G6PC, INSR, IGF1R and FOXO4 were measured. Three to six samples were analyzed in each treatment group. Data were normalized by Actin B (ACTB) or Glyceraldehyde Phosphate Dehydrogenase (GAPDH) mRNA levels in each sample and are presented as mean±SEM of 3-6 samples.
# To examine whether or not Compound C can regulate INSR/IGF1R signaling in IMR-32 cells, QRT-PCR analysis was performed to measure INSR and IGF1R mRNA levels. […] Mean±SEM, n=4. The * refers to a p value <0.05 when compared to the control group (0 ppb).
smiles,measurement,setting,value
"C[Se]C[C@H]1O[C@@H](n2cnc3c(N)ncnc32)C(O)C1O (stereo in doubt) [Compound C, 5′-deoxy-5′-methylselenoadenosine]",cell viability (OD490),IMR-32 cells,"small, but significant increase"
same,PSEN1 protein levels,PSEN1,significant reduction
same,IGF1R mRNA expression levels,IGF1R,downregulated
